Experimental data taken from PubChem BioAssay AID248 (DTP/NCI, 2004).
Values joined by “and” are separate entries in the source; they are usually repeats but may differ in a detail not shown here. Identical values can stand only once. Inconclusive results and toxic doses are left out. Rule as the data show it: active = T/C of 150% or more; inactive = T/C below 125%.

Test system: L1210 leukemia ip in BDF1 mice, survival T/C
Assay: NCI In Vivo Anticancer Drug Screen. Data for tumor model L1210 Leukemia (intraperitoneal) in B6D2F1 (BDF1) mice
Settings: endpoint: mean survival time, higher = longer survival
Method in brief: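 Antitumor effect is assessed in tumor-bearing animals. Survival in the compound arm is compared with a vehicle-dosed control arm and expressed as their quotient.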

[1] = dose: 100.0 mg/kg/injection, schedule: Q01DX001 (ip), vehicle: saline with Tween-80
[2] = dose: 100.0 mg/kg/injection, schedule: Q01DX009 (ip), vehicle: saline
[3] = dose: 100.0 mg/kg/injection, schedule: Q04DX003 (ip), vehicle: saline
[4] = dose: 200.0 mg/kg/injection, schedule: Q01DX009 (ip), vehicle: saline
[5] = dose: 200.0 mg/kg/injection, schedule: Q04DX003 (ip), vehicle: saline
[6] = dose: 100.0 mg/kg/injection, schedule: Q01DX001 (ip), vehicle: saline
[7] = dose: 200.0 mg/kg/injection, schedule: Q01DX001 (ip), vehicle: saline
[8] = dose: 400.0 mg/kg/injection, schedule: Q01DX001 (ip), vehicle: saline
[9] = dose: 100.0 mg/kg/injection, schedule: Q04DX003 (ip), vehicle: Klucel (hydroxypropylcellulose) (HPC)

Measured: T/C

Cc1ccc([I+]c2ccc(C)c(C)c2)cc1C
inactive: dose: 1.0 mg/kg/injection, schedule: Q01DX001 (ip), vehicle: acetone 102 % of control | dose: 2.0 mg/kg/injection, schedule: Q01DX001 (ip), vehicle: acetone 98 % of control | dose: 4.0 mg/kg/injection, schedule: Q01DX001 (ip), vehicle: acetone 105 % of control | dose: 5.9 mg/kg/injection, schedule: Q01DX001 (ip), vehicle: saline 103 % of control | dose: 9.0 mg/kg/injection, schedule: Q01DX001 (ip), vehicle: saline 97 % of control | dose: 13.0 mg/kg/injection, schedule: Q01DX001 (ip), vehicle: saline 100 % of control | dose: 19.0 mg/kg/injection, schedule: Q01DX001 (ip), vehicle: saline 102 % of control | dose: 29.0 mg/kg/injection, schedule: Q01DX001 (ip), vehicle: saline 101 % of control | dose: 45.0 mg/kg/injection, schedule: Q01DX001 (ip), vehicle: saline 98 % of control | dose: 65.0 mg/kg/injection, schedule: Q01DX001 (ip), vehicle: saline with Tween-80 96 % of control | [1] 97 % of control | dose: 150.0 mg/kg/injection, schedule: Q01DX001 (ip), vehicle: saline with Tween-80 94 % of control | dose: 225.0 mg/kg/injection, schedule: Q01DX001 (ip), vehicle: saline with Tween-80 102 % of control | dose: 340.0 mg/kg/injection, schedule: Q01DX001 (ip), vehicle: saline with Tween-80 96 % of control

c1ccc(OP2OCCO2)cc1
inactive: dose: 50.0 mg/kg/injection, schedule: Q01DX009 (ip), vehicle: saline 92 % of control | dose: 50.0 mg/kg/injection, schedule: Q04DX003 (ip), vehicle: saline 105 % of control | [2] 102 % of control | [3] 102 % of control | [4] 92 % of control | [5] 103 % of control

Cc1c(-c2ccccc2)oc2c(C(=O)OCCN3CCCCC3)cccc2c1=O
inactive: [6] 102 % of control | [7] 102 % of control | [8] 96 % of control

O=C1/C(=C/c2ccccc2)Cc2cccc(O)c21
inactive: dose: 100.0 mg/kg/injection, schedule: Q01DX009 (ip), vehicle: saline sonified 100 % of control | dose: 200.0 mg/kg/injection, schedule: Q01DX009 (ip), vehicle: saline sonified 107 % of control | dose: 400.0 mg/kg/injection, schedule: Q01DX009 (ip), vehicle: saline sonified 102 % of control

O=C(CBr)c1cccc2c1ccc1ccccc12
inactive: dose: 1.56 mg/kg/injection, schedule: Q01DX009 (ip), vehicle: other 100 % of control | dose: 3.13 mg/kg/injection, schedule: Q01DX009 (ip), vehicle: other 95 % of control | dose: 6.25 mg/kg/injection, schedule: Q01DX009 (ip), vehicle: other 95 % of control and 98 % of control | dose: 12.5 mg/kg/injection, schedule: Q01DX005 (ip), vehicle: other 101 % of control | dose: 12.5 mg/kg/injection, schedule: Q04DX002 (ip), vehicle: other 102 % of control | dose: 25.0 mg/kg/injection, schedule: Q01DX005 (ip), vehicle: other 104 % of control | dose: 25.0 mg/kg/injection, schedule: Q04DX002 (ip), vehicle: other 91 % of control | dose: 50.0 mg/kg/injection, schedule: Q04DX002 (ip), vehicle: other 102 % of control

Cc1cc2c(-c3ccccc3)c(C(=O)c3ccccc3)c(C(=O)c3ccccc3)c(-c3ccccc3)c2cc1C
inactive: [1] 89 % of control | dose: 200.0 mg/kg/injection, schedule: Q01DX001 (ip), vehicle: saline with Tween-80 89 % of control | dose: 400.0 mg/kg/injection, schedule: Q01DX001 (ip), vehicle: saline with Tween-80 89 % of control

CC(C)(C)CN=C(N)N
inactive: [6] 96 % of control | [7] 94 % of control | [8] 102 % of control

COc1ccc(CCN(C)C(c2ccccc2)c2ccccc2)cc1OC
inactive: [6] 100 % of control | [7] 96 % of control | [8] 104 % of control

Cc1cccc(C)c1NC(=S)N1CCOCC1
inactive: dose: 100.0 mg/kg/injection, schedule: Q01DX009 (ip), vehicle: other 106 % of control | dose: 200.0 mg/kg/injection, schedule: Q01DX009 (ip), vehicle: other 116 % of control | dose: 400.0 mg/kg/injection, schedule: Q01DX009 (ip), vehicle: other 122 % of control

N#Cc1[nH]cnc1NN=NCCCl
inactive: dose: 12.5 mg/kg/injection, schedule: Q01DX001 (ip), vehicle: saline with Tween-80 109 % of control | dose: 25.0 mg/kg/injection, schedule: Q01DX001 (ip), vehicle: saline with Tween-80 104 % of control | dose: 50.0 mg/kg/injection, schedule: Q01DX001 (ip), vehicle: saline with Tween-80 116 % of control | [1] 118 % of control

Nc1ccc(C(=O)Nc2ccc(NC(=O)Nc3ccc(NC(=O)c4ccc(N)cc4)c(S(=O)(=O)O)c3)cc2S(=O)(=O)O)cc1
inactive: dose: 60.0 mg/kg/injection, schedule: Q01DX Z (ip), vehicle: carboxymethylcellulose (CMC) 96 % of control | dose: 120.0 mg/kg/injection, schedule: Q01DX Z (ip), vehicle: carboxymethylcellulose (CMC) 98 % of control | dose: 240.0 mg/kg/injection, schedule: Q01DX Z (ip), vehicle: carboxymethylcellulose (CMC) 95 % of control | dose: 240.0 mg/kg/injection, schedule: Q01DX Z (oral), vehicle: carboxymethylcellulose (CMC) 106 % of control | dose: 480.0 mg/kg/injection, schedule: Q01DX Z (ip), vehicle: carboxymethylcellulose (CMC) 95 % of control | dose: 480.0 mg/kg/injection, schedule: Q01DX Z (oral), vehicle: carboxymethylcellulose (CMC) 112 % of control | dose: 960.0 mg/kg/injection, schedule: Q01DX Z (oral), vehicle: carboxymethylcellulose (CMC) 93 % of control

Nc1nc(-c2ccccc2)c(CCCCc2ccccc2)c(=O)[nH]1
inactive: dose: 50.0 mg/kg/injection, schedule: Q01DX Z (ip), vehicle: carboxymethylcellulose (CMC) 97 % of control | dose: 200.0 mg/kg/injection, schedule: Q01DX Z (ip), vehicle: carboxymethylcellulose (CMC) 89 % of control

CCCCCCCCCCCCCCCCCCc1ccc(O)cc1O
inactive: dose: 100.0 mg/kg/injection, schedule: Q04DX003 (ip), vehicle: saline with Tween-80 89 % of control | dose: 200.0 mg/kg/injection, schedule: Q04DX003 (ip), vehicle: saline with Tween-80 92 % of control | dose: 400.0 mg/kg/injection, schedule: Q04DX003 (ip), vehicle: saline with Tween-80 86 % of control

NC(CCn1cnc2c(=O)[nH]cnc21)C(=O)O (configuration not stated)
inactive: [9] 101 % of control | dose: 200.0 mg/kg/injection, schedule: Q04DX003 (ip), vehicle: Klucel (hydroxypropylcellulose) (HPC) 102 % of control | dose: 400.0 mg/kg/injection, schedule: Q04DX003 (ip), vehicle: Klucel (hydroxypropylcellulose) (HPC) 96 % of control

Cc1c[n+]([O-])ccc1N=Nc1ccc(N(C)C)cc1
inactive: dose: 25.0 mg/kg/injection, schedule: Q04DX003 (ip), vehicle: Klucel (hydroxypropylcellulose) (HPC) 104 % of control | dose: 50.0 mg/kg/injection, schedule: Q04DX003 (ip), vehicle: Klucel (hydroxypropylcellulose) (HPC) 110 % of control | [9] 106 % of control and 107 % of control

O=C(Nc1ccccc1O)C(O)C(O)C(O)C(O)CO (configuration not stated)
inactive: [3] 87 % of control | [5] 97 % of control | dose: 400.0 mg/kg/injection, schedule: Q04DX003 (ip), vehicle: saline 91 % of control

Nc1ccc2c(c1)C(=O)c1ccccc1C2=O
inactive: dose: 50.0 mg/kg/injection, schedule: Q01DX001 (ip), vehicle: saline 98 % of control | [6] 102 % of control | [2] 92 % of control | dose: 100.0 mg/kg/injection, schedule: Q04DX002 (ip), vehicle: saline 100 % of control | [7] 102 % of control | [4] 92 % of control | dose: 200.0 mg/kg/injection, schedule: Q04DX002 (ip), vehicle: saline 93 % of control | [8] 102 % of control | dose: 400.0 mg/kg/injection, schedule: Q01DX009 (ip), vehicle: saline 92 % of control | dose: 400.0 mg/kg/injection, schedule: Q04DX002 (ip), vehicle: saline 93 % of control

CCn1c(C)[n+](CC)c2ccc(C(C)=O)cc21
inactive: [1] 97 % of control

Cc1ccc(NC(=O)COc2ccc(C)cc2C)cc1
inactive: dose: 100.0 mg/kg/injection, schedule: Q04DX002 (ip), vehicle: gum acacia 95 % of control | dose: 200.0 mg/kg/injection, schedule: Q04DX002 (ip), vehicle: gum acacia 89 % of control

O=[N+]([O-])n1cnnc1-c1ccccc1
inactive: dose: 12.5 mg/kg/injection, schedule: Q04DX003 (ip), vehicle: gum acacia 96 % of control | dose: 25.0 mg/kg/injection, schedule: Q04DX003 (ip), vehicle: gum acacia 102 % of control | dose: 50.0 mg/kg/injection, schedule: Q04DX003 (ip), vehicle: gum acacia 98 % of control
